Source: US8952024B2, “Herbicidal pyrimidone derivatives” (E I du Pont de Nemours and Company, priority 2009, dated 2015)

What was measured:
Type in all cases: in vivo
[1] = system: wheat (Triticum aestivum); assay: Test A pre-/postemergence plant response
How it was run: (§1)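 Visually rated 0–100 injury (100 = complete control) versus untreated plants, ~10 days in greenhouse. Application pre- (soil spray, loam/sand) and postemergence (2–10 cm, 1–2 leaf stage), same timepoint.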

[2] = system: large crabgrass (Digitaria sanguinalis); assay: Test A pre-/postemergence plant response
How it was run: as §1

[3] = system: pigweed (Amaranthus retroflexus); assay: Test A pre-/postemergence plant response
How it was run: as §1

corn (Zea mays) = assay: Test A pre-/postemergence plant response
How it was run: as §1

[4] = system: giant foxtail (Setaria faberii); assay: Test A pre-/postemergence plant response
How it was run: as §1

[5] = system: barnyardgrass (Echinochloa crus-galli); assay: Test A pre-/postemergence plant response
How it was run: as §1

[6] = system: velvetleaf (Abutilon theophrasti); assay: Test A pre-/postemergence plant response
How it was run: as §1

[7] = system: morningglory (Ipomoea spp.); assay: Test A pre-/postemergence plant response
How it was run: as §1

[8] = system: windgrass (Apera spica-venti); assay: Test B postemergence plant response
How it was run: (§2)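 Plants at the 1- to 4-leaf stage (2 to 18 cm tall), grown in pots of peat moss/vermiculite medium with wetting agent and starter nutrients, received postemergence applications of test chemicals. After 13 to 15 days in a greenhouse, injury was rated visually against untreated controls on a 0 (no effect) to 100 (complete control) scale.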

[9] = system: chickweed (Stellaria media); assay: Test B postemergence plant response; conditions: for Chickweed plant response rating: scale 0 to 100
How it was run: as §2

[10] = system: winter barley (Hordeum vulgare); assay: Test B postemergence plant response; conditions: for Barley plant response rating: scale 0 to 100
How it was run: as §2

[11] = system: canarygrass (Phalaris minor); assay: Test B postemergence plant response; conditions: for Canarygrass plant response rating: scale 0 to 100
How it was run: as §2

[12] = Postemergence, 125 g ai/ha, visual injury, 0 to 100 scale (0 no effect, 100 complete control), approx. ten days
[13] = Postemergence, 500 g ai/ha, 0 to 100 scale, 0 = no effect, 100 = complete control, approx. ten days
[14] = Preemergence, 125 g ai/ha, 0 to 100 scale, 0 = no effect, 100 = complete control
[15] = Preemergence, 500 g ai/ha, visual injury, 0 to 100 scale (0 no effect, 100 complete control), approx. ten days
[16] = Postemergence, 62 g ai/ha, scale 0 (no effect) to 100 (complete control), 13 to 15 days
[17] = Postemergence, 125 g ai/ha, visual rating after 13 to 15 days, scale 0 (no effect) to 100 (complete control)
[18] = Postemergence, 31 g ai/ha, scale 0 to 100 (0 no effect, 100 complete control)
[19] = 31 g ai/ha, postemergence, scale 0 to 100, 0 is no effect, 100 is complete control
[20] = Postemergence, 250 g ai/ha, scale 0 to 100 (0 no effect, 100 complete control)

## Cc1ccc(F)cc1-n1c(-c2ccccc2)ncc(C(=O)C2=C(O)CCCC2=O)c1=O [Compound 44]
[1]; [12]
  Wheat plant response rating: 0
[1]; [13]
  Plant response rating, Wheat: 20
[1]; [14]
  Plant response rating, Wheat: 0
[1]; [15]
  Plant response rating, Wheat: 0
[2]; [12]
  Crabgrass, Large plant response rating: 80
[2]; [13]
  Plant response rating, Crabgrass, Large: 90
[2]; [14]
  Plant response rating, Crabgrass, Large: 80
[2]; [15]
  Plant response rating, Crabgrass, Large: 90
[3]; [12]
  Pigweed plant response rating: 100
[3]; [13]
  Plant response rating, Pigweed: 100
[3]; [14]
  Plant response rating, Pigweed: 60
[3]; [15]
  Plant response rating, Pigweed: 90
Corn (Zea mays); [12]
  Corn plant response rating: 0
Corn (Zea mays); [13]
  Plant response rating, Corn: 40
Corn (Zea mays); [14]
  Plant response rating, Corn: 0
Corn (Zea mays); [15]
  Plant response rating, Corn: 0
[4]; [12]
  Foxtail, Giant plant response rating: 80
[4]; [13]
  Plant response rating, Foxtail, Giant: 90
[4]; [14]
  Plant response rating, Foxtail, Giant: 30
[4]; [15]
  Plant response rating, Foxtail, Giant: 90
[5]; [12]
  Barnyardgrass plant response rating: 90
[5]; [13]
  Plant response rating, Barnyardgrass: 100
[5]; [14]
  Plant response rating, Barnyardgrass: 30
[5]; [15]
  Plant response rating, Barnyardgrass: 100
[6]; [12]
  Velvetleaf plant response rating: 100
[6]; [13]
  Plant response rating, Velvetleaf: 100
[6]; [14]
  Plant response rating, Velvetleaf: 70
[6]; [15]
  Plant response rating, Velvetleaf: 100
[7]; [12]
  Morningglory plant response rating: 80
[7]; [13]
  Plant response rating, Morningglory: 90
[7]; [14]
  Plant response rating, Morningglory: 20
[7]; [15]
  Plant response rating, Morningglory: 70
[8]; [16]
  Plant response rating, Windgrass: 70
[8]; [17]
  Plant response rating, Windgrass: 85
[9]; [18]
  Plant response rating, Chickweed: 90
[9]; [16]
  Plant response rating, Chickweed: 95
[9]; [17]
  Plant response rating, Chickweed: 98
[9]; Postemergence, 250 g ai/ha
  Chickweed plant response rating: 100
[10]; [18]
  Plant response rating, Barley: 0
[10]; [16]
  Plant response rating, Barley: 0
[10]; [17]
  Plant response rating, Barley: 5
[10]; Postemergence, 250 g ai/ha
  Barley plant response rating: 15
[11]; [18]
  Plant response rating, Canarygrass: 20
[11]; [16]
  Plant response rating, Canarygrass: 20
[11]; [17]
  Plant response rating, Canarygrass: 30
[11]; Postemergence, 250 g ai/ha
  Canarygrass plant response rating: 40

## Cc1cccc(Cl)c1-n1c(-c2ccccc2)ncc(C(=O)C2=C(O)CCCC2=O)c1=O [Compound 46]
[1]; [12]
  Wheat plant response rating: 0
[1]; [13]
  Plant response rating, Wheat: 0
[1]; [14]
  Plant response rating, Wheat: 0
[1]; [15]
  Plant response rating, Wheat: 20
[2]; [12]
  Crabgrass, Large plant response rating: 70
[2]; [13]
  Plant response rating, Crabgrass, Large: 90
[2]; [14]
  Plant response rating, Crabgrass, Large: 30
[2]; [15]
  Plant response rating, Crabgrass, Large: 80
[3]; [12]
  Pigweed plant response rating: 80
[3]; [13]
  Plant response rating, Pigweed: 100
[3]; [14]
  Plant response rating, Pigweed: 60
[3]; [15]
  Plant response rating, Pigweed: 90
Corn (Zea mays); [12]
  Corn plant response rating: 0
Corn (Zea mays); [13]
  Plant response rating, Corn: 20
Corn (Zea mays); [14]
  Plant response rating, Corn: 0
Corn (Zea mays); [15]
  Plant response rating, Corn: 0
[4]; [12]
  Foxtail, Giant plant response rating: 60
[4]; [13]
  Plant response rating, Foxtail, Giant: 90
[4]; [14]
  Plant response rating, Foxtail, Giant: 0
[4]; [15]
  Plant response rating, Foxtail, Giant: 60
[5]; [12]
  Barnyardgrass plant response rating: 80
[5]; [13]
  Plant response rating, Barnyardgrass: 90
[5]; [14]
  Plant response rating, Barnyardgrass: 0
[5]; [15]
  Plant response rating, Barnyardgrass: 50
[6]; [12]
  Velvetleaf plant response rating: 100
[6]; [13]
  Plant response rating, Velvetleaf: 100
[6]; [14]
  Plant response rating, Velvetleaf: 40
[6]; [15]
  Plant response rating, Velvetleaf: 70
[7]; [12]
  Morningglory plant response rating: 60
[7]; [13]
  Plant response rating, Morningglory: 70
[7]; [14]
  Plant response rating, Morningglory: 10
[7]; [15]
  Plant response rating, Morningglory: 70
[8]; [16]
  Plant response rating, Windgrass: 10
[8]; [17]
  Plant response rating, Windgrass: 15
[9]; [18]
  Plant response rating, Chickweed: 80
[9]; [16]
  Plant response rating, Chickweed: 95
[9]; [17]
  Plant response rating, Chickweed: 95
[9]; Postemergence, 250 g ai/ha
  Chickweed plant response rating: 98
[10]; [18]
  Plant response rating, Barley: 0
[10]; [16]
  Plant response rating, Barley: 0
[10]; [17]
  Plant response rating, Barley: 0
[10]; Postemergence, 250 g ai/ha
  Barley plant response rating: 0
[11]; [18]
  Plant response rating, Canarygrass: 0
[11]; [16]
  Plant response rating, Canarygrass: 0
[11]; [17]
  Plant response rating, Canarygrass: 0
[11]; Postemergence, 250 g ai/ha
  Canarygrass plant response rating: 0

## Cc1cc(-n2c(-c3ccccc3)ncc(C(=O)C3=C(O)CCCC3=O)c2=O)ccc1F [Compound 53]
[1]; [12]
  Wheat plant response rating: 30
[1]; [13]
  Plant response rating, Wheat: 50
[1]; [14]
  Plant response rating, Wheat: 0
[1]; [15]
  Plant response rating, Wheat: 10
[2]; [12]
  Crabgrass, Large plant response rating: 90
[2]; [13]
  Plant response rating, Crabgrass, Large: 100
[2]; [14]
  Plant response rating, Crabgrass, Large: 90
[2]; [15]
  Plant response rating, Crabgrass, Large: 100
[3]; [12]
  Pigweed plant response rating: 100
[3]; [13]
  Plant response rating, Pigweed: 100
[3]; [14]
  Plant response rating, Pigweed: 90
[3]; [15]
  Plant response rating, Pigweed: 100
Corn (Zea mays); [12]
  Corn plant response rating: 0
Corn (Zea mays); [13]
  Plant response rating, Corn: 80
Corn (Zea mays); [14]
  Plant response rating, Corn: 0
Corn (Zea mays); [15]
  Plant response rating, Corn: 0
[4]; [12]
  Foxtail, Giant plant response rating: 90
[4]; [13]
  Plant response rating, Foxtail, Giant: 90
[4]; [14]
  Plant response rating, Foxtail, Giant: 70
[4]; [15]
  Plant response rating, Foxtail, Giant: 100
[5]; [12]
  Barnyardgrass plant response rating: 90
[5]; [13]
  Plant response rating, Barnyardgrass: 100
[5]; [14]
  Plant response rating, Barnyardgrass: 40
[5]; [15]
  Plant response rating, Barnyardgrass: 100
[6]; [12]
  Velvetleaf plant response rating: 100
[6]; [13]
  Plant response rating, Velvetleaf: 100
[6]; [14]
  Plant response rating, Velvetleaf: 80
[6]; [15]
  Plant response rating, Velvetleaf: 90
[7]; [12]
  Morningglory plant response rating: 100
[7]; [13]
  Plant response rating, Morningglory: 100
[7]; [14]
  Plant response rating, Morningglory: 80
[7]; [15]
  Plant response rating, Morningglory: 90
[8]; [19]
  Plant response rating, Windgrass: 60
[8]; [16]
  Plant response rating, Windgrass: 80
[8]; [17]
  Plant response rating, Windgrass: 85
[8]; [20]
  Plant response rating, Windgrass: 95
[9]; [19]
  Plant response rating, Chickweed: 85
[9]; [16]
  Plant response rating, Chickweed: 98
[9]; [17]
  Plant response rating, Chickweed: 98
[9]; [20]
  Plant response rating, Chickweed: 100
[10]; [19]
  Plant response rating, Barley: 0
[10]; [16]
  Plant response rating, Barley: 50
[10]; [17]
  Plant response rating, Barley: 70
[10]; [20]
  Plant response rating, Barley: 70
[11]; [19]
  Plant response rating, Canarygrass: 40
[11]; [16]
  Plant response rating, Canarygrass: 80
[11]; [17]
  Plant response rating, Canarygrass: 90
[11]; [20]
  Plant response rating, Canarygrass: 90

## Cn1c(-c2ccccc2)ncc(C(=O)C2=C(O)CCCC2=O)c1=O [Compound 55]
[1]; [12]
  Wheat plant response rating: 0
[1]; [13]
  Plant response rating, Wheat: 0
[1]; [14]
  Plant response rating, Wheat: 0
[1]; [15]
  Plant response rating, Wheat: 0
[2]; [12]
  Crabgrass, Large plant response rating: 70
[2]; [13]
  Plant response rating, Crabgrass, Large: 90
[2]; [14]
  Plant response rating, Crabgrass, Large: 0
[2]; [15]
  Plant response rating, Crabgrass, Large: 50
[3]; [12]
  Pigweed plant response rating: 90
[3]; [13]
  Plant response rating, Pigweed: 100
[3]; [14]
  Plant response rating, Pigweed: 50
[3]; [15]
  Plant response rating, Pigweed: 100
Corn (Zea mays); [12]
  Corn plant response rating: 0
Corn (Zea mays); [13]
  Plant response rating, Corn: 10
Corn (Zea mays); [14]
  Plant response rating, Corn: 0
Corn (Zea mays); [15]
  Plant response rating, Corn: 0
[4]; [12]
  Foxtail, Giant plant response rating: 20
[4]; [13]
  Plant response rating, Foxtail, Giant: 60
[4]; [14]
  Plant response rating, Foxtail, Giant: 0
[4]; [15]
  Plant response rating, Foxtail, Giant: 0
[5]; [12]
  Barnyardgrass plant response rating: 50
[5]; [13]
  Plant response rating, Barnyardgrass: 70
[5]; [14]
  Plant response rating, Barnyardgrass: 0
[5]; [15]
  Plant response rating, Barnyardgrass: 10
[6]; [12]
  Velvetleaf plant response rating: 100
[6]; [13]
  Plant response rating, Velvetleaf: 100
[6]; [14]
  Plant response rating, Velvetleaf: 60
[6]; [15]
  Plant response rating, Velvetleaf: 60
[7]; [12]
  Morningglory plant response rating: 90
[7]; [13]
  Plant response rating, Morningglory: 90
[7]; [14]
  Plant response rating, Morningglory: 30
[7]; [15]
  Plant response rating, Morningglory: 60
[8]; [19]
  Plant response rating, Windgrass: 0
[8]; [16]
  Plant response rating, Windgrass: 0
[8]; [17]
  Plant response rating, Windgrass: 0
[8]; [20]
  Plant response rating, Windgrass: 5
[9]; [19]
  Plant response rating, Chickweed: 65
[9]; [16]
  Plant response rating, Chickweed: 75
[9]; [17]
  Plant response rating, Chickweed: 80
[9]; [20]
  Plant response rating, Chickweed: 90
[10]; [19]
  Plant response rating, Barley: 0
[10]; [16]
  Plant response rating, Barley: 0
[10]; [17]
  Plant response rating, Barley: 0
[10]; [20]
  Plant response rating, Barley: 0
[11]; [19]
  Plant response rating, Canarygrass: 0
[11]; [16]
  Plant response rating, Canarygrass: 0
[11]; [17]
  Plant response rating, Canarygrass: 0
[11]; [20]
  Plant response rating, Canarygrass: 0
